Test results as given in paper PMC10139132, “Immobilization of M3 Muscarinic Receptor to Rapidly Analyze Drug—Protein Interactions and Bioactive Components in a Natural Plant” (International Journal of Molecular Sciences, 2023).
Counter-ions that a name gives are not always drawn. Each block holds one compound with its values, some of them ahead of it.

Key:
[1] = test system: M3 muscarinic receptor (M3R); format: binding
muscarinic M3 receptor = conditions: cited from earlier work
[2] = test system: M3 muscarinic receptor (M3R); format: binding; conditions: immobilized M3R column; flow rates 0.4-3.6 mL/min
immobilized M3R [3] = test: Identification of M3R-binding bioactive compounds in Daturae Flos extract on M3R-immobilized column with HPLC-MS; conditions: retained peak 2 of Daturae Flos extract, identified by HPLC-MS/MS
Method: The heating under reflux method was used to make the anhydrous extract of […]. In brief, 10 g of dried DF was soaked in 100 mL of water for 0.5 h, boiled for 2 × 1 h, filtered, and concentrated to 10 mL via rotary evaporation at 60 °C under reduced pressure. A solution of 95% ethanol was applied to carry out alcohol sedimentation to reduce the alcohol content of the concentrated extract to 75%. The liquid supernatant was concentrated at 60 °C to obtain an herbal solution of 1.0 g/mL.
The M3R-immobilized column was utilized to analyze the active components in the DF extract with an Agilent 1100 chromatographic system. The mobile phase was 5 mM ammonium acetate buffer, the flow rate was 0.3 mL/min, the sample volume was 10 μL, and the detection wavelength was 254 nm. […] It was further analyzed using high performance liquid chromatography (HPLC)–mass spectrometry (MS).
An Eclipse XDB-C18 column (2.1 × 150 mm, 3.5 μm) was employed for chromatographic analysis with a 0.1% formic acid solution and methanol (40:60, v/v) as the mobile phase, a flow rate of 0.3 mL/min, and a column temperature of 30 °C. The MS analysis was carried out in both negative and positive modes with a scan range of 100–2000 amu, a nebulizing gas pressure of 30 psi, a flow rate of 8.0 L/min, and a dry gas temperature of […], respectively.

immobilized M3R [4] = test: Specificity of the M3R-immobilized column (retention times of ligands); format: binding
[5] = phosphate buffer 20 mM pH 7.4, flow rate 0.2 mL/min, injection 10 μL

SMILES: CN1[C@@H]2CC(OC(=O)[C@H](CO)c3ccccc3)C[C@H]1[C@@H]1O[C@@H]12.Cl (single isomer, unassigned; (-)) [(−)-Scopolamine hydrochloride]
- KA by Frontal Analysis (association constant) [1]: (2.39 ± 0.03) × 10^4 M^−1
- kd by the Radioligand Binding Assay (muscarinic M3 receptor): 0.00517 ± 0.0005 s⁻¹

SMILES: CN1[C@@H]2CC[C@H]1C[C@@H](OC(=O)C(CO)c1ccccc1)C2 (stereo partly shown) [Atropine sulfate, atropine sulfate]
- KA by Frontal Analysis (association constant) [1]: (3.71 ± 0.03) × 10^4 M^−1
- kd by the Peak Profiling Method (dissociation rate constant) [2]: 0.238 ± 0.00283 s⁻¹

SMILES: CN1[C@@H]2CC[C@H]1C[C@@H](OC(=O)[C@H](CO)c1ccccc1)C2 [Hyoscyamine, hyoscyamine]
- binding to M3R of compounds from the DF extract (immobilized M3R [3]): bind to M3R

SMILES: CC[C@@H]1C(=O)OC[C@@H]1Cc1cncn1C [Pilocarpine]
- retention time on the M3R-immobilized column (immobilized M3R [4]; [5]): 5.4 min

- specific binding on the M3R-immobilized column (immobilized M3R [4]; judged from retention time vs system void time): no specific binding occurred
SMILES: CCCCC(=O)N(Cc1ccc(-c2ccccc2-c2nnn[nH]2)cc1)[C@H](C(=O)O)C(C)C [Valsartan]
- retention time on the M3R-immobilized column (immobilized M3R [4]; [5]): 2.3 min

SMILES: CN1[C@@H]2C[C@@H](OC(=O)[C@H](CO)c3ccccc3)C[C@H]1[C@@H]1O[C@@H]12 [scopolamine]
- binding to M3R of compounds from the DF extract (immobilized M3R [3]): bind to M3R

SMILES: O=N[O-].[Na+] [sodium nitrite, Sodium nitrite]
- retention time on the M3R-immobilized column (immobilized M3R [4]; pH 7.4): 1.1 min
